Earlier results, collected in EP3639895A1, “METHOD OF REDUCING PERSPIRATION” (priority 2018, dated 2020).

System: Staphylococcus epidermidis
Settings: 80% or greater reduction in growth of inoculum over 16 to 24 hours at 37°C

| minimum inhibitory concentration (MIC) | Structure (SMILES) |
| --- | --- |
| ca. 25 µg.ml^-1 | CC(C)=CCCC(C)=CCCC(C)=CCO [farnesol, 3,7,11-trimethyldodeca-2,6,10-trienol] |
| greater than 1 mg.ml^-1 | CCO [ethanol] |

| Structure (SMILES) | minimum inhibitory concentration (MIC) |
| --- | --- |
| Oc1cc(Cl)ccc1Oc1ccc(Cl)cc1Cl [triclosan, 2',4,4'-trichloro,2-hydroxy-diphenyl ether] | 0.01 to 10 µg/mL |
